Results: PubChem BioAssay (NCI)
“And” between values parts separate entries of the source, which are not always exact repeats. Identical values can stand only once.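 Five compound concentrations were applied to cells in 96-well plates for 48 hours; endpoints were derived by simple linear interpolation of the resulting dose-response curve. Abbreviation: GI50, concentration required for 50% inhibition of growth. TGI is the concentration that stops growth completely.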

Assays:
Assay in all cases: NCI tumour cell line growth inhibition, 48 h
UACC-257 melanoma = tested on: UACC-257 melanoma
NCI-H522 lung = tested on: NCI-H522 lung
COLO 205 colon = tested on: COLO 205 colon
M14 melanoma = tested on: M14 melanoma
CAKI-1 renal = tested on: CAKI-1 renal
786-0 renal = tested on: 786-0 renal
IGROV1 ovarian = tested on: IGROV1 ovarian
HCT-15 colon = tested on: HCT-15 colon
A549 NSCLC = tested on: A549 NSCLC
T-47D breast = tested on: T-47D breast

Compound	GI50 (UACC-257 melanoma) [µM]	TGI (UACC-257 melanoma) [µM]	GI50 (NCI-H522 lung) [µM]	TGI (NCI-H522 lung) [µM]	GI50 (COLO 205 colon) [µM]	TGI (COLO 205 colon) [µM]	GI50 (M14 melanoma) [µM]	TGI (M14 melanoma) [µM]	GI50 (CAKI-1 renal) [µM]	TGI (CAKI-1 renal)	GI50 (786-0 renal) [µM]	TGI (786-0 renal) [µM]	GI50 (IGROV1 ovarian) [µM]	TGI (IGROV1 ovarian)	GI50 (HCT-15 colon) [µM]	TGI (HCT-15 colon)	GI50 (A549 NSCLC) [µM]	TGI (A549 NSCLC)	GI50 (T-47D breast) [µM]	TGI (T-47D breast) [µM]
CCCc1cc(=O)[nH]c(-n2nc(C)cc2C)n1	6.23	40	4.98	30.7	8.45	> 100	2.91	> 100	2.47	26.3 µM	7.62	> 100	2.31	> 100 µM	1.75	> 100 µM	2.71	> 100 µM	–	–
COc1ccc2c(c1)[n+]([O-])c(-c1ccc(OC)c(OC)c1)c(N)[n+]2[O-]	–	> 100	–	31.5	–	34.5	–	> 100	–	72.2 µM	–	> 100	–	> 100 µM	–	> 100 µM	–	> 100 µM	–	–
O=c1c2ccccc2c(=O)n2n1CC=CC2	–	> 100	–	> 100	–	> 100	–	> 100	–	> 100 µM	–	> 100	–	> 100 µM	–	> 100 µM	–	> 100 µM	–	–
c1csc(-c2cn3nc(-c4c[nH]c5ccccc45)sc3n2)c1	11.4	98.3	0.754	> 100	–	–	0.75	15.8	0.997	> 100 µM	3.06	> 100	1.79	> 100 µM	0.488	15.6 µM	1.72	> 100 µM	–	–
Clc1ccc(N=Nc2nc3ccccc3nc2N=Nc2ccc(Cl)cc2Cl)c(Cl)c1	–	> 100	–	> 100	–	> 100	–	–	–	–	–	> 100	–	> 100 µM	–	> 100 µM	–	> 100 µM	–	–
CCN(CC)CCOc1ccc(CCc2cc(OC)c(OC)c(OC)c2)cc1	–	69.9	–	> 100	–	31	–	34.3	–	> 100 µM	–	> 100	–	> 100 µM	–	> 100 µM	–	> 100 µM	–	–
COc1cc([C@@H]2c3cc4c(cc3[C@@H](OC(=O)c3ccc(N)cc3)C3COC(=O)[C@@H]32)OCO4)cc(OC)c1O (stereo not given in full)	–	> 95	–	5.35	–	18.9	–	> 95	–	> 95 µM	–	59	–	17.3 µM	–	56.1 µM	–	28.1 µM	–	–
O=C1C2C3C=C4c5ccccc5N(c5ccccc5)C4(C2C(=O)N1c1ccc(Cl)cc1)[C@H]1C(=O)N(c2ccc(Cl)cc2)C(=O)[C@@H]31 (stereo not given in full)	–	> 100	–	> 100	–	> 100	–	> 100	–	76.3 µM	–	> 100	–	> 100 µM	–	> 100 µM	–	> 100 µM	–	–
c1ccc(C(c2ccccc2)c2cccnc2)cc1	–	> 100	–	–	–	> 100	–	> 100	–	> 100 µM	–	> 100	–	> 100 µM	–	> 100 µM	–	> 100 µM	–	–
COC(=O)/C(=N\NC(=O)C[N+](C)(C)C)C(C(=O)OC)C(=O)C(=O)Nc1ccccc1C(N)=O (stereo not given)	–	> 100	–	> 100	–	> 100	–	> 100	–	> 100 µM	–	> 100	–	> 100 µM	–	> 100 µM	–	> 100 µM	–	–
O=C(Nc1ccncc1)C(=O)c1cn(Cc2ccc(Cl)cc2)c2ccccc12	–	–	–	–	0.232	> 22.3	0.048	> 100	0.0355	> 100 µM	0.0533	> 100	0.141	> 100 µM	0.0408	> 100 µM	0.399	> 100 µM	0.0436	> 100
O=C(NC(=O)c1cn(CCN(CCO)C(=O)NCCCCCCNC(=O)N(CCO)CCn2cc(C(=O)NC(=O)OCc3ccccc3)c(=O)[nH]c2=O)c(=O)[nH]c1=O)OCc1ccccc1	–	> 100	–	–	–	> 100	–	> 100	–	> 100 µM	–	> 100	–	> 100 µM	–	> 100 µM	–	> 100 µM	–	–
CN1CCN(CCOc2ccc(-c3cnc4c(-c5ccc(C(F)(F)F)cc5)cnn4c3)cc2)CC1	1.66	3.34	1.55	3.16	–	–	1.7	3.25	1.42	2.72 µM	1.67	3.16	1.55	3.06 µM	1.02	2.31 µM	1.63	3.3 µM	–	–
COC1/C=C/C(C)C(C(C)C(OC)C(C)CCC(=O)C(C)C(C/C=C/N(C)C=O)OC)OC(=O)/C=C/C=C(\C)CC(OC)CC2=CC(=O)O[C@H](C2)C(C)C(OC)CC(OC)/C=C/C(C)C(OC)C1 (stereo not given in full)	–	0.0257	–	–	0.0184	0.131	0.0215	0.0686	0.00682	0.0308 µM and 0.0117 µM	0.0155	0.0356	0.0159	0.053 µM and 0.0341 µM	0.0142	0.27 µM and 0.0329 µM	0.0185	0.271 µM and 0.284 µM	0.168	0.488
Cc1ccc(SSc2ccc(C)cc2C(=O)O)c(C(=O)O)c1	–	> 100	–	> 100	–	> 100	–	–	–	> 100 µM	–	> 100	–	–	–	–	–	> 100 µM	–	–
COc1cccc(-c2nn(-c3ccccc3)cc2-c2ccnc(NCCCNC(=O)Nc3ccc(Cl)c(Cl)c3)c2)c1	2.05	5.38	–	–	1.87	3.82	1.97	4.45	3.16	15 µM	1.82	3.97	4.24	19.4 µM	2.4	6.66 µM	3.79	13.4 µM	2.41	11.4
N.N.N.N.N.[Cl-].[Co+3].c1ccc(-c2nn[n-]n2)cc1	> 100	> 100	–	–	> 100	> 100	> 100	> 100	> 100	> 100 µM	> 100	> 100	> 100	> 100 µM	> 100	> 100 µM	> 100	> 100 µM	–	–
